Test results published in ChEMBL document CHEMBL1201862, “PubChem BioAssay data set” (2004).
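Each compound was tested at five concentrations against cells in 96-well plates for 48 hours. At the GI50, growth is halved.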 The source made the active and inactive calls. No stated cut-off is given here; in the data, active = GI50 up to about 1.1 µM and inactive = higher.

What was measured:
Assay in all cases: DTP human tumour cell line panel, 48 h
SF-539 = tested on: SF-539
MOLT-4 = tested on: MOLT-4
SN12C = tested on: SN12C
COLO 205 = tested on: COLO 205
IGROV-1 = tested on: IGROV-1
HCT-15 = tested on: HCT-15
SNB-75 = tested on: SNB-75
HOP-62 = tested on: HOP-62
RPMI-8226 = tested on: RPMI-8226
MCF7 = tested on: MCF7
CAKI-1 = tested on: CAKI-1
SK-MEL-5 = tested on: SK-MEL-5
786-0 = tested on: 786-0
U-251 = tested on: U-251
SK-MEL-28 = tested on: SK-MEL-28
M14 = tested on: M14
UACC-62 = tested on: UACC-62
HCT-116 = tested on: HCT-116
SF-295 = tested on: SF-295
OVCAR-5 = tested on: OVCAR-5

SMILES	GI50 (SF-539)	GI50 (MOLT-4)	GI50 (SN12C)	GI50 (COLO 205)	GI50 (IGROV-1)	GI50 (HCT-15) [µM]	GI50 (SNB-75)	GI50 (HOP-62)	GI50 (RPMI-8226)	GI50 (MCF7)	GI50 (CAKI-1)	GI50 (SK-MEL-5)	GI50 (786-0)	GI50 (U-251)	GI50 (SK-MEL-28)	GI50 (M14)	GI50 (UACC-62)	GI50 (HCT-116)	GI50 (SF-295)	GI50 (OVCAR-5)
Cc1ccnc2nc(-c3cccc(Cl)c3)cc(O)c12	0.0906 µM (active)	0.0658 µM (active)	0.139 µM (active)	0.0598 µM (active)	0.185 µM (active)	0.0407	> 10 µM (inactive)	0.0708 µM (active)	0.0356 µM (active)	0.36 µM (active)	1.33 µM (inactive)	0.038 µM (active)	0.08 µM (active)	0.0596 µM (active)	1.9 µM (inactive)	0.0822 µM (active)	0.0474 µM (active)	0.0269 µM (active)	0.0426 µM (active)	
COc1c(C)c(C/C=C(\C)CCCC(C)CCCC(C)CCCC(C)C)c(OC)c2ccccc12 (stereo not given)	> 100 µM (inactive)	> 100 µM (inactive)	> 100 µM (inactive)	> 100 µM (inactive)	> 100 µM (inactive)	> 100	> 100 µM (inactive)		> 100 µM (inactive)	> 100 µM (inactive)	> 100 µM (inactive)	> 100 µM (inactive)	> 100 µM (inactive)	> 100 µM (inactive)		> 100 µM (inactive)	> 100 µM (inactive)	> 100 µM (inactive)	> 100 µM (inactive)	> 100 µM (inactive)
Cc1ccc(S(=O)(=O)NC(=O)C2=C3SCCN3C(=O)N(S(=O)(=O)c3ccc(C)cc3)C2c2ccccc2)cc1 (stereo not given)	25.6 µM (inactive)	44.9 µM (inactive)	49.9 µM (inactive)	19.9 µM (inactive)	46.9 µM (inactive)	> 100	43.4 µM (inactive)	59.3 µM (inactive)	26.7 µM (inactive)	29.9 µM (inactive)	> 100 µM (inactive)		51.9 µM (inactive)	39.3 µM (inactive)	50.2 µM (inactive)	61 µM (inactive)	37.3 µM (inactive)	36.1 µM (inactive)	31.5 µM (inactive)	39.4 µM (inactive)
Cc1c2c(c(C)n1-c1ccccc1)C(=O)N(CCN1CCN(c3cccc(C(F)(F)F)c3)CC1)C2=O	87.1 µM (inactive)	6.03 µM (inactive)	45 µM (inactive)	17.1 µM (inactive)	> 100 µM (inactive)	17.7	> 100 µM (inactive)	> 100 µM (inactive)	21.5 µM (inactive)	7.71 µM (inactive)	84.7 µM (inactive)	5.25 µM (inactive)	71.8 µM (inactive)	31.3 µM (inactive)		> 100 µM (inactive)	> 100 µM (inactive)	8.36 µM (inactive)	50.1 µM (inactive)	> 100 µM (inactive)
COC(=O)C1=CCC[C@H]2[C@@]1(COC(C)=O)CC[C@@H](C)[C@]2(C)CC(=O)c1ccoc1	10.9 µM (inactive)	10.5 µM (inactive)	17.8 µM (inactive)	12.2 µM (inactive)	15.9 µM (inactive)	13.9	12.7 µM (inactive)		11.4 µM (inactive)	16.1 µM (inactive)	18.6 µM (inactive)	8.89 µM (inactive)	15.2 µM (inactive)	21.2 µM (inactive)		23.5 µM (inactive)	7.93 µM (inactive)	9.91 µM (inactive)	19.3 µM (inactive)	49 µM (inactive)
CCOC(=O)C1CCC(=O)N1C(=O)c1ccc(Cl)cc1 (stereo not given)	> 100 µM (inactive)	> 100 µM (inactive)	> 100 µM (inactive)		> 100 µM (inactive)	> 100	> 100 µM (inactive)	> 100 µM (inactive)	> 100 µM (inactive)	> 100 µM (inactive)	> 100 µM (inactive)	> 100 µM (inactive)	> 100 µM (inactive)	> 100 µM (inactive)	> 100 µM (inactive)	> 100 µM (inactive)	22.3 µM (inactive)	> 100 µM (inactive)	> 100 µM (inactive)	> 100 µM (inactive)
O=C(CSCC(=O)N/N=C/c1cccc(OCc2ccccc2)c1)N/N=C/c1cccc(OCc2ccccc2)c1	> 100 µM (inactive)	15.5 µM (inactive)	35.5 µM (inactive)		> 70.8 µM (inactive)	44.4	> 100 µM (inactive)	> 100 µM (inactive)	8.91 µM (inactive)	33.7 µM (inactive)	> 100 µM (inactive)	31.3 µM (inactive)	54.2 µM (inactive)	39.2 µM (inactive)	> 100 µM (inactive)	37.5 µM (inactive)	> 92.3 µM (inactive)	26.8 µM (inactive)	34.2 µM (inactive)	96.8 µM (inactive)
Cc1cc2c(cc1C)C(=O)C1(C2)Cc2c(ccc(C)c2C)C1=O (stereo not given)	36.6 µM (inactive)	> 100 µM (inactive)	> 100 µM (inactive)	> 100 µM (inactive)	> 100 µM (inactive)	> 100	64.6 µM (inactive)		> 100 µM (inactive)	> 100 µM (inactive)	> 100 µM (inactive)	> 100 µM (inactive)	89.1 µM (inactive)	> 100 µM (inactive)	> 100 µM (inactive)	> 100 µM (inactive)	> 100 µM (inactive)	> 100 µM (inactive)	> 100 µM (inactive)	> 100 µM (inactive)
